From publication PMC4352280, “Bioactivity guided fractionation and hypolipidemic property of a novel HMG-CoA reductase inhibitor from Ficus virens Ait” (Lipids in Health and Disease, 2015) come the findings set out here.

The experiment has as its target T1, HMG-CoA reductase (Homo sapiens, UniProt P04035).
T1 construct: gene HMGCR; catalytic domain of the human enzyme (recombinant GST fusion protein expressed in E. coli)
T1 sequence (P04035 426-888 limits assumed): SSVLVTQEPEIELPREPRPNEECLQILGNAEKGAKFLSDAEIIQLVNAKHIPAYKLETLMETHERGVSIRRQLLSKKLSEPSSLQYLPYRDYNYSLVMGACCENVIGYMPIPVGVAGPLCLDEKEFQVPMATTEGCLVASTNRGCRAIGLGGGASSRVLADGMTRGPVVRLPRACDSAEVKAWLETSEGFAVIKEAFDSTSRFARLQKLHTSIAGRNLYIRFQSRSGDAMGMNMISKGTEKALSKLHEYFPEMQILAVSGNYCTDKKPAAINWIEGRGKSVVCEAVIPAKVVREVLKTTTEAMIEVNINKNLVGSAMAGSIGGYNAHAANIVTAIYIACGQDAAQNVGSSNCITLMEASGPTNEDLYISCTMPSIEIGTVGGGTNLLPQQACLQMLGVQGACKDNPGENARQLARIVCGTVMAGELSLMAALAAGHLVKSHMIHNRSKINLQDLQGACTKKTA
The experiment can be described thus: spectrophotometric HMG-CoA reductase assay; Lineweaver-Burk and Dixon plots. In kind it is biochemical.

The structures appear in SMILES notation.

`CCCCCCCCCCCCCCCCCCO[C@H]1O[C@H](CO[C@H]2O[C@H](CO)[C@@H](O)[C@H](O)[C@H]2O)[C@@H](O)[C@H](O)[C@H]1O` [F18, n-Octadecanyl-O-α-D-glucopyranosyl(6′ → 1″)-O-α-D-glucopyranoside]: the IC50 (usually the concentration needed to halve the response being measured) is 141 nM. In other words, the sub-micromolar range.
